Literature values, collected in US20200069728A1, “HYPOCHLOROUS ACID BASED EYE DROP AND OPHTHALMIC COMPOSITION” (priority 2018, published 2020).

Conditions: non-stabilized hypochlorous acid, background statement

- potency lost per day: 1-2%
Structure (SMILES): OCl [hypochlorous acid]
